The target in experiment [1] is T1, KcsA-Kv1.2 T+F chimera (Streptomyces lividans, UniProt P0A334, A54E/A57S/G53D/G56E/I60P/L59F/L81M/P55R/R52A/R64D/T61S/V84T/Y62I/Y82V).
T1 sequence (P0A334 1-160 R52A/G53D/A54E/P55R/G56E/A57S/L59F/I60P/T61S/Y62I/R64D/L81M/Y82V/V84T): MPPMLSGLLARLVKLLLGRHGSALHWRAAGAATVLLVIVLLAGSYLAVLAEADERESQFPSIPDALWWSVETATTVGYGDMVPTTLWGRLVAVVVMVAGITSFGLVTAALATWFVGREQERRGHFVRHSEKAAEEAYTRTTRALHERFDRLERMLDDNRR
The experiment is described as follows: Phage-binding competition assay, KcsA-Kv1.2 T+F. Details: species or system human Kv1.2 turret and filter in Streptomyces lividans KcsA. The protocol: (§1) Phage stock solutions were diluted to working concentration with phage resuspension buffer supplemented with 2 mM DDM. For protein immobilization, the following amounts were used in a final volume of 50 μl/well: wt KcsA, 0.1 μg; KcsA-Kv1.1 T-only, 0.005 μg; KcsA-Kv1.1 T+F, 0.02 μg; KcsA-Kv1.2 T-only, 0.01 μg; KcsA-Kv1.2 T+F, 0.1 μg; KcsA-Kv1.3 T-only, 0.01 μg; and KcsA-Kv1.3 T+F, 0.1 μg. Protein samples were diluted in 50 μl of storage buffer (20 mM Tris pH8.0, 300 mM KCl, 2 mM DDM) and were added to the designated wells of a Pierce Clear, 96-Well Nickel Coated Plate (15442, Thermo Fisher Scientific), then incubated for 1 h at room temperature on a horizontal shaker at 130 rpm. The plate was blocked for 1 h at room temperature with 180 μl/well TBS-BSA supplemented with 1 mM DDM. Following blocking, the wells were washed 4× with washing buffer (300 μl TBS-Tween, 0.1% v/v) using a Wellwash Versa microplate washer (Thermo Fisher Scientific); then 50 μl phage solution (in TBS-BSA-Tween, 0.1% v/v, 2 mM DDM) at determined phage concentration was added to the wells and incubated for 1 h at room temperature on a horizontal shaker. The plate was washed 4× with washing buffer, then 50 μl anti-M13 IgG HRP (MA5-36125, Invitrogen) diluted to 1:2500 in TBS-Tween (0.1% v/v) was added to the wells and incubated for 1 h at room temperature. The plate was washed again 4× with 300 μl/well washing buffer. Finally, 50 μl/well 1-Step Ultra TMB-ELISA solution (34028, Thermo Fisher Scientific) was added to the wells, and the developing signal was stopped with 50 μl 1M HCl after 5 to 10 min. The light absorbance signal was read at 450 nm with Byonoy absorbance 96 plate reader (Byonoy GmbH).
(§2) For protein immobilization, the following amounts were used in a final volume of 50 μl/well: KcsA-Kv1.1 T-only, 0.005 μg; KcsA-Kv1.1 T+F, 0.01 μg; KcsA-Kv1.2 T-only, 0.025 μg; KcsA-Kv1.2 T+F, 0.0125 μg; KcsA-Kv1.3 T-only, 0.01 μg; and KcsA-Kv1.3 T+F, 0.1 μg. Protein samples were diluted in storage buffer. Binding of given concentrations of relevant ligand-displaying phages quantified by light absorbance ([…]) were investigated in a similar manner as in phage ELISA-binding assay, while different concentrations of competing toxin test substances were applied simultaneously. The results were converted to percent inhibitions (percent displacement) of the indicator phage binding, and relative affinities of the tested toxins were assessed by plotting percent displacements against log concentrations and determining half maximal inhibitory concentrations (IC50) by sigmoidal curve fitting using “Sigmoidal dose-response (variable slope) with least squares method” algorithm in GraphPad Prism 8 using the following equation: Y=Bottom+Top−Bottom/1+10^(LogEC50−×)⋅HillSlope

The target in experiment [2] is T2, KcsA-Kv1.2 T+F chimera (Streptomyces lividans, UniProt P0A334, R52A/G53D/A54E/P55R/G56E/A57S/L59F/I60P/T61S/Y62I/R64D/L81M/Y82V/V84T).
T2 sequence (P0A334 1-160 R52A/G53D/A54E/P55R/G56E/A57S/L59F/I60P/T61S/Y62I/R64D/L81M/Y82V/V84T): T1 sequence (P0A334 1-160 R52A/G53D/A54E/P55R/G56E/A57S/L59F/I60P/T61S/Y62I/R64D/L81M/Y82V/V84T)
Description: Phage-binding competition assay, KcsA-Kv1.2 T+F. Details: species or system human Kv1.2 turret and filter in Streptomyces lividans KcsA. Particulars: rank by competition IC50 among MTX, ShK, KTX1. The protocol:
as §1, §2

[3] abbreviates: displacement of HgTx1-phage, KcsA-Kv1.2 T+F 0.0125 μg/well on nickel-coated plate, mean ± SD (n = 3), read-out: IC50, T+F chimera (Kv1.2).

This note sets out measurements from PMC11002876, “KcsA-Kv1.x chimeras with complete ligand-binding sites provide improved predictivity for screening selective Kv1.x blockers” (The Journal of Biological Chemistry, 2024).

Read-outs that look alike come from different tables or passages of the source. Where a SMILES comes first, the peptide text is derived from it.

`CC[C@H](C)[C@H](NC(=O)[C@H](CCC(=O)O)NC(=O)[C@@H](NC(=O)CN)C(C)C)C(=O)N[C@@H](CC(N)=O)C(=O)N[C@H](C(=O)N[C@@H](CCCCN)C(=O)N[C@H]1CSSC[C@@H]2NC(=O)[C@H](CCCCN)NC(=O)CNC(=O)[C@H](Cc3ccccc3)NC(=O)[C@H](CCCNC(=N)N)NC(=O)[C@H](CCSC)NC(=O)CNC(=O)[C@H](C)NC(=O)[C@H](CC(=O)O)NC(=O)[C@H](CCCCN)NC(=O)[C@@H]3CSSC[C@@H](C(=O)N[C@H](C(=O)N4CCC[C@H]4C(=O)N[C@@H](CCCCN)C(=O)O)[C@@H](C)O)NC(=O)[C@H](Cc4c[nH]cn4)NC(=O)[C@H](CSSC[C@H](NC(=O)[C@H](CCC(N)=O)NC(=O)[C@@H]4CCCN4C(=O)[C@H](CO)NC(=O)CNC(=O)[C@H](CO)NC1=O)C(=O)N[C@@H](CC(C)C)C(=O)N[C@@H](CCCCN)C(=O)N1CCC[C@H]1C(=O)N3)NC(=O)[C@H](CCCCN)NC(=O)[C@H](CCCNC(=N)N)NC(=O)[C@H](CC(N)=O)NC(=O)[C@H](CCSC)NC2=O)C(C)C` [KTX1, Kaliotoxin-1]: the IC50 – broadly, the concentration at which inhibition is half-maximal – on KcsA-Kv1.2 T+F chimera [1] (setting [3]) turned out to be 205 nM. Moreover, at KcsA-Kv1.2 T+F chimera [2], the “Rank, T+F chimera (Kv1.2)” value came out at 3.

Take `CC[C@H](C)[C@@H]1NC(=O)[C@@H]2CSSC[C@H](NC(=O)[C@H](CO)NC(=O)[C@@H](N)C(C)C)C(=O)N[C@@H]([C@@H](C)O)C(=O)NCC(=O)N[C@@H](CO)C(=O)N[C@@H](CCCCN)C(=O)N[C@@H](CC(=O)O)C(=O)N[C@@H](CSSC[C@@H](C(=O)N[C@@H](CCCCN)C(=O)N[C@H]3CSSC[C@@H](C(N)=O)NC(=O)CNC(=O)[C@H](Cc4ccc(O)cc4)NC3=O)NC(=O)[C@H](CO)NC(=O)[C@H](CCCCN)NC(=O)[C@H](CC(N)=O)NC1=O)C(=O)N[C@@H](Cc1ccc(O)cc1)C(=O)N[C@@H](C)C(=O)N1CCC[C@H]1C(=O)N[C@H]1CSSC[C@H](NC(=O)CNC(=O)[C@H]([C@@H](C)O)NC(=O)[C@H](CCC(N)=O)NC(=O)[C@H](CCCCN)NC(=O)[C@H](CCCNC(=N)N)NC1=O)C(=O)N1CCC[C@H]1C(=O)N[C@@H](CC(N)=O)C(=O)N[C@@H](C)C(=O)N[C@@H](CCCCN)C(=O)N2` [MTX, Maurotoxin] (HELM PEPTIDE1{V.S.C.T.G.S.K.D.C.Y.A.P.C.R.K.Q.T.G.C.P.N.A.K.C.I.N.K.S.C.K.C.Y.G.C.[am]}$PEPTIDE1,PEPTIDE1,3:R3-24:R3|PEPTIDE1,PEPTIDE1,9:R3-29:R3|PEPTIDE1,PEPTIDE1,13:R3-19:R3|PEPTIDE1,PEPTIDE1,31:R3-34:R3$$$V2.0; N-terminus and C-terminus assumed): the IC50 at KcsA-Kv1.2 T+F chimera [1] (HgTx1-phage competition, KcsA-Kv1.2 T+F, value given in figure, sigmoidal fit to means of three replicates, read-out: IC50 (Fig. 7F)) was 0.129 nM. For the same molecule, the “Rank, T+F chimera (Kv1.2)” value at KcsA-Kv1.2 T+F chimera [2] amounted to 1.

As for `CC[C@H](C)[C@@H]1NC(=O)[C@@H](NC(=O)[C@H](CO)NC(=O)[C@@H](N)CCCNC(=N)N)CSSC[C@@H](C(=O)O)NC(=O)[C@H]([C@@H](C)O)NC(=O)CNC(=O)[C@@H]2CSSC[C@@H]3NC(=O)[C@H](CCC(N)=O)NC(=O)[C@H](Cc4ccccc4)NC(=O)[C@H](C)NC(=O)[C@H]([C@@H](C)O)NC(=O)[C@H](CSSC[C@H](NC(=O)[C@H](Cc4ccccc4)NC(=O)[C@H](CO)NC(=O)[C@H](CC(C)C)NC(=O)[C@H](CCCNC(=N)N)NC(=O)[C@H](Cc4ccc(O)cc4)NC(=O)[C@H](CCCCN)NC(=O)[C@H](CCSC)NC(=O)[C@H](CO)NC(=O)[C@H](Cc4c[nH]cn4)NC(=O)[C@H](CCCCN)NC3=O)C(=O)N[C@@H](CCCNC(=N)N)C(=O)N[C@@H](CCCCN)C(=O)N[C@@H]([C@@H](C)O)C(=O)N2)NC(=O)[C@H](CCCNC(=N)N)NC(=O)[C@H](CO)NC(=O)[C@H](CCCCN)NC(=O)[C@@H]2CCCN2C(=O)[C@H]([C@@H](C)CC)NC(=O)[C@H]([C@@H](C)O)NC(=O)[C@H](CC(=O)O)NC1=O` [ShK, Stichodactyla toxin], the concentration for half-maximal inhibition (IC50) on KcsA-Kv1.2 T+F chimera [1] (setting [3]) is 15.9 nM. In addition, on KcsA-Kv1.2 T+F chimera [2], the “Rank, T+F chimera (Kv1.2)” value is listed as 2.
